The target of assay [1] is T1, P. aeruginosa T3SS (Pseudomonas aeruginosa, UniProt P95434). Briefly: T3SS-mediated secretion assay. In kind it is cell-based. Conditions: for potency increase in the β-lactamase secretion assay over the unoptimized compound: 37a vs 34o, 37b vs 34r.
In assay [2] the target is T1, P. aeruginosa T3SS. The format is cell-based. The conditions noted are these: for IC50: read-out: translocation IC50, CHO cells + P. aeruginosa PA99U, LDH release. Background: LDH in the medium is a marker of cell lysis.
For assay [3], the system named is P. aeruginosa T3SS. Conditions: read-out: translocation IC50; activity in translocation assays; cited from earlier work.

Where two headings read alike, the source gives them in different places.

For orientation: IC50 means the concentration needed to halve the response being measured.

For `CC[C@@H](Oc1ncc(Cl)cc1Cl)C(=O)NCc1ccc2sccc2c1` [Compound 37a, (R)-N-[(Benzothiophene-5-yl)methyl]-2-[(3,5-dichloropyridin-2-yl)oxy]butanamide], in assay [1], the “potency increase in the β-lactamase secretion assay over the unoptimized compound” value worked out at 6 fold.

Regarding `CC[C@@H](Oc1ncc(Cl)cc1Cl)C(=O)NCc1ccc2[nH]ccc2c1` [Compound 37b, (R)-N-[(Indol-5-yl)methyl]-2-[(3,5-dichloropyridin-2-yl)oxy]butanamide], the “improvement in the translocation assay over the unoptimized compound” value in assay [2] (37b vs 34r) was 2.5 fold. In assay [1], the “potency increase in the β-lactamase secretion assay over the unoptimized compound” value is 2.6 fold.

Take `O=C(NN=Cc1cc(Br)cc(Br)c1O)c1ccc([N+](=O)[O-])cc1` [INP-007]: in assay [3], the IC50 was 0.8 µM.

Consider “N-(Benzothiophene-5-yl)-2-(2,4-dichlorophenoxy)propanamide [Compound 34o]”, for which the IC50 in assay [2] turned out to be 5.3 ± 3.7 µM; in assay [1] (read-out: secretion IC50), 6 ± 1.6 µM.

With “N-[(Benzimidazol-5-ylmethyl])-2-(2,4-dichlorophenoxy)propanamide [Compound 34q]”, the IC50 in assay [2] is 33 ± 8 µM.

The values are drawn from paper PMC4339527 (Bioorganic & medicinal chemistry, 2015).
